Key:
[1] = CR dye photodegradation in ZnO-based sunscreen film (Neutrogena Sheer Zinc Face Mineral Sunscreen SPF 50); conditions: 1.5 wt. % added agent relative to sunscreen weight
Description: Therefore, the extent of photodegradation upon UV irradiation in a photoreactor, using the same setup and ZnO-based sunscreen formulation (Neutrogena Sheer Zinc Face™ Mineral Sunscreen SPF 50) as in Examples 7.1 and 7.2 above, except now using Congo Red (CR) rather than MB dye was investigated. For this investigation, a homogeneous composite mixture was prepared by mixing the ZnO-based (Neutrogena Sheer Zinc Face™ Mineral Sunscreen SPF 50) sunscreen, and CR dye in the similar way as described in Example 7.1 for MB, except now using 10^−3 M CR dye (0.6 mL) instead of 10^−3 M MB dye (0.6 mL). Similarly, a composite sunscreen mixture comprising UV-protecting agent was prepared with synthesized Ce2(CO3)3·6H2O (1.5 wt. % relative to sunscreen weight), following the procedure of Example 7.2. The investigation of CR dye photodegradation in sunscreen films, was also conducted in similar fashion as described in Examples 7.1 for the case of no added UV-protecting agent and 7.2 for the case of added Ce2(CO3)3·6H2O UV-protecting agent, except for the following changes. First, the CR sunscreen films were salmon colored on the same filter paper, and the duration of UV-irradiation in the photoreactor was 5 h instead of 4 h. Second, 2 mL of N,N-dimethylformamide was used for CR dye extraction, instead of 2 mL of ethanol as used for MB dye extraction. […]

[2] = MB dye photodegradation in octacrylene-based sunscreen film (Blue Lizard Kids Australian Sunscreen SPF 30+); conditions: 1.5 wt. % added agent
Description: Films on filter paper were fabricated and photoreactor experiments were conducted exactly the same way as described in Example 7.2, using MB dye, except UV irradiation in the photoreactor was conducted for a period of 4 h. These films contained either no UV-protecting agent, or 1.5 wt. % of Ce2(CO3)3·6H2O that was synthesized according to Example 3. The slurry formulation for film fabrication, photoexposure to UV light, and MB dye extraction in ethanol were performed similar to Example 7.2, except Blue Lizard® Kids Australian Sunscreen SPF 30+ was used.
A 30 nm blue-shift of the wavelength of the absorbance maximum was observed (from 654 nm initially to 624 nm after 4 h of UV irradiation in the photoreactor). The degree of photodegradation was calculated by UV-visible spectrophotometry, by assuming the same extinction coefficient at 654 nm before UV irradiation and 624 nm after 4 h of UV irradiation in the photoreactor. Data in FIG. 25A corresponds to 64% MB dye photodegradation.

[3] = CR dye photodegradation in TiO2-based sunscreen film (Neutrogena Broad Spectrum Mineral Sunscreen SPF 60+)
Description: Films on filter paper were fabricated and photoreactor experiments were conducted exactly the same way as described in Example 7.3, using CR dye, except UV irradiation in the photoreactor was conducted for a period of 4 h. These films contained either no UV-protecting agent, 3.0 wt. % of Ce2(CO3)3·6H2O that was synthesized according to Example 3, 3.0 wt. % of commercial Ce2(CO3)3·xH2O (Acros Organics), or 3.0 wt. % of ZnO (NANOBYK-3840). […] Upon adding 3 wt. % of Ce2(CO3)3·6H2O synthesized according to Example 3 to the sunscreen formulation, a decrease in the amount of CR dye photodegradation to 15±1% is observed. […] When cerium carbonate consisting of Ce2(CO3)3·xH2O from Acros Organics is instead used in place of Ce2(CO3)3·6H2O synthesized according to Example 3, photoprotection with 24±2% CR dye photodegradation is observed. The properties of Ce2(CO3)3·xH2O from Acros Organics have been ascribed in Example 4, and these aspects are borne out in conjunction with sunscreen-based formulations here as well. When instead of cerium carbonate ZnO (NANOBYK-3840) is used as a UV-protecting agent, less effect on CR dye photodegradation is observed. This is a similar outcome to observations with MB dye and ZnO-based sunscreen formulation in Example 7.2.
The amount of Ce2(CO3)3·6H2O synthesized according to Example 3 that was incorporated into the TiO2-based sunscreen was increased to 5.0 wt. %, and results are shown in FIGS. 23A-23B and are summarized in Table 4. […] There is a slight diminishing return for adding Ce2(CO3)3·6H2O both here and in Example 7.2, but the effect of increasing Ce2(CO3)3·6H2O on organic-molecule photoprotection is much more pronounced than in the case of ZnO.

RBL-2H3 rat-cell line = test: Toxicity of mammalian cells to cerium carbonate, microscopy imaging; format: cell-based; conditions: 10 microliter of 1 mg in 1 mL water dispersion, imaging 20 min after addition
Description: A RBL-2H3 rat-cell line was used from the Berkeley cell-culture facility. […] Prior to microscopy imaging, cells were stored under 5% CO2 in air atmosphere at 37° C. A 10 microliter aliquot of an aqueous dispersion comprising 1 mg of cerium carbonate Ce2(CO3)3·6H2O (micron sized) in 1 mL of deionized water was added to the RBL-2H3 cells in the Petri dish. Microscopy imaging of the cells was performed before and 20 min after addition of the cerium carbonate. […] This viability of the cells appears to be similar both before and after treatment with cerium carbonate Ce2(CO3)3·6H2O (micron sized).

Q: Which “% of CR dye photodegradation after 5 h of UV irradiation in photoreactor” value [1] does the source give for `O.O.O.O.O.O.O=C([O-])[O-].O=C([O-])[O-].O=C([O-])[O-].[Ce+3].[Ce+3]` [Ce2(CO3)3·6H2O] here?
A: 9±1%

Q: What about the “% of CR dye photodegradation after 5 h of UV irradiation in photoreactor” value ([1]; listed as Ce2(CO3)3•6H2O synthesized according to Example 3) of the same molecule?
A: 9 ± 1%

Q: And the “MB dye degradation after 4 h of UV irradiation in photoreactor” value [2]?
A: 45%

Q: What about the “% of CR dye photodegradation after 4 h of UV irradiation in photoreactor” value ([3]; 3.0 wt. % added agent relative to sunscreen weight, listed as Ce2(CO3)3·6H2O synthesized according to Example 3) of the same molecule?
A: 15±1%

Q: And the “% of CR dye photodegradation after 4 h of UV irradiation in photoreactor” value ([3]; 3.0 wt. % added agent relative to sunscreen weight, listed as Ce2(CO3)3•6H2O synthesized according to Example 3)?
A: 15 ± 1%

Q: What about the “% of CR dye photodegradation after 4 h of UV irradiation in photoreactor” value ([3]; 5.0 wt. % added agent relative to sunscreen weight) of the same molecule?
A: 10 ± 1%

Q: What about the “toxicity to cells (cell shape, viability)” value (RBL-2H3 rat-cell line) of the same molecule?
A: generally non-toxic to the cells
